Source: patent US20160015700A1, “4-CYANO-N-(2-(4,4-DIMETHYLCYCLOHEX-1-EN-1-YL)-6-(2,2,6,6-TETRAMETHYLTETRAHYDRO-2H-PYRAN-4-YL)PYRIDIN-3-YL)-1H-IMIDAZOLE-2-CARBOXAMIDE FOR THE TREATMENT OF HODGKIN'S LYMPHOMA” (JANSSEN PHARMACEUTICA NV, priority 2013, published 2016)

Tested on: classical Hodgkin's Lymphoma patient
Test: Case study: treatment of a classical Hodgkin's Lymphoma patient, response by CT/MRI scan and PET scan (Cheson criteria)
Assay type: in vivo, human
Conditions: 150 mg orally 1 time a day, Cheson 2007 criteria
Method: A classical Hodgkin's Lymphoma patient, diagnosed with Stage II in Hodgkin Lymphoma in January 2006, and previously treated with radiotherapy and three different regimens of chemotherapy, including an autologous stem cell transplantation was treated with 150 mg of the compound of formula (I), administered orally 1 time a day. In addition to the compound of formula (I), the patient was taking the following medications and dosages: (a) DEKRISTOL (cholecalciferol), 20000 I.U. QOD for vitamin deficiency, (b) methylphenidate hydrochloride, 20 mg DAILY for fatigue, (c) ibuprofen, 600 mg PRN for back pain, and (d) VALORON N (tilidine) 50 IN 20 DROPS PRN for back pain.
Response to treatment was evaluated by tumor assessments using CT/MRI scan and PET scan, resulting in an individual response for each technique. In addition, an overall response evaluation was completed, taking into account both scan results. Response evaluations were completed according to the criteria as set forth in CHESON, B. D., et al., J. Clin. Oncology, 2007, pp579-586, Vol. 25(5).

For CC1(C)CC=C(c2nc(C3CC(C)(C)OC(C)(C)C3)ccc2NC(=O)c2nc(C#N)c[nH]2)CC1 [compound of formula (I), 4-cyano-N-(2-(4,4-dimethylcyclohex-1-en-1-yl)-6-(2,2,6,6-tetramethyltetrahydro-2H-pyran-4-yl)pyridin-3-yl)-1H-imidazole-2-carboxamide], the “response status at later follow-up” value (as of 13 Mar. 2013) was “still in complete response” and the “overall response to treatment” value (evaluated after 121 days of treatment, previously treated classical Hodgkin's Lymphoma patient) was “complete response to treatment”.
